Tested on: CXCL1 in human whole blood
Test: Human whole blood CXCL1 assay (Auranofin stimulation)
Assay type: cell-based
Settings: 5 μM Auranofin, 24 hours, CXCL1 quantified, average of donors, read-out: WB EC50 nM (n = 4)
Procedure: Human Whole Blood CXCL1 Assay
Human blood collected in sodium heparin glass vacutainer tubes (BD Biosciences #366480) was obtained from Stanford Blood Center (Palo Alto, Ca). Red blood cell Ammonium-Chloride-Potassium (ACK) lysis buffer was obtained from Invitrogen (A10492-01) Phosphate buffered saline (PBS, 21-031-CV) and RPMI640 media (10-040-CV) were purchased from Cellgro. 50 ml conical tubes were from BD Biosciences (352070). Multiscreen Filter plates (MSBVS 1210) used along with vacuum manifold for 96-well plate (MAVM0960R) were purchased from EMD Millipore Inc. Transfer pipettes (13-711-20) and hemocytometer (0267110) were purchased from Thermo Fisher Scientific. An Allegra X15R from Beckmann Coulter was used for all the centrifugation steps in the isolation of PBMCs.
ASK1 inhibitors and Auranofin (Enzo Life Sciences Inc. BML-EI206-0100) were dissolved in dimethyl sulfoxide (DMSO, Sigma Aldrich cat#472301) at a concentration of 10 mM and 100 mM, respectively. […] CXCL1 protein was quantified with an ELISA assay from Millipore.
A 10 mM ASK1 inhibitor DMSO stock was diluted in saline to create a 100 μM (10×) working solution. […] 50 μl of the resulting supernatant from each well was transferred to a new 96 well assay plate and the amount of CXCL1 was quantified by a Procarta immunoassay following the manufacturer's instructions. […]

| EC50 [nM] | SMILES |
| --- | --- |
| 243 | O=C(Nc1csc(-c2nncn2C2CC2)n1)c1cc(-n2cnc(C3CC3)c2)c(N2CCOCC2)cn1 [Example 1, 4-(4-cyclopropyl-1H-imidazol-1-yl)-N-(2-(4-cyclopropyl-4H-1,2,4-triazol-3-yl)thiazol-4-yl)-5-morpholinopicolinamide] |
| 202 | C[C@H](n1cnnc1-c1nc(NC(=O)c2cc(-n3cnc(C4CC4)c3)c(N3CCOCC3)cn2)cs1)C(F)(F)F [Example 3, (S)-4-(4-cyclopropyl-1H-imidazol-1-yl)-5-morpholino-N-(2-(4-(1,1,1-trifluoropropan-2-yl)-4H-1,2,4-triazol-3-yl)thiazol-4-yl)picolinamide] |

— patent US10307427B2, “Apoptosis signal-regulating kinase inhibitors” (Gilead Sciences, Inc., priority 2012, dated 2019)
